# Test results taken from article PMC12502564, “Evaluation of LLM-generated peptide as foundation template for discovery of effective encrypted AMPs against clinical superbugs” (Microbiology Spectrum, 2025).
# No end group written: not given here.
# Experiments:
# [1] = system: CRKP 2403276; assay type: cell-based, carbapenem-resistant K. pneumoniae
# Protocol: (§1) The MIC of all peptides was determined using the microdilution broth method in a 96-well plate. Peptides were dissolved in the DMSO with an initial concentration of 12,800 µg mL^−1. And cells of eight strains were separately suspended in the MHB at a density of approximately 10^5 CFU mL^−1. In the first column of the 96-well plate, 16 µL of peptide and 184 µL of MHB were added to each well to achieve a final concentration of 1,024 µg mL^−1. One-hundred microliters of MHB was added to each of the remaining wells. Then the first column of liquid was mixed well and diluted to the 12th column using the twofold dilution method. One-hundred microliters of prepared bacterial solution was added to all wells, and the 96-well plate was incubated at 37°C for 18–24 h. The MIC was defined as the concentration of the peptide in the well just preceding the first well showing visible turbidity. All experiments were performed in triplicate to ensure reliability.
# [2] = system: all eight bacterial strains; assay type: cell-based, gram-positive and gram-negative bacteria; settings: judged from MICs on eight strains
# Protocol: as §1
# [3] = system: HEK293 cells; assay type: cell-based
# Protocol: Cytotoxicity of AMPs was determined using the Cell Counting Kit-8. HEK293 cells, bought from Procell (Wuhan, China), were inoculated in 96-well flat-bottom plates according to 5,000 cells/well in cell culture medium. After 24-h incubation at 37°C with 5% CO2 in atmosphere, medium was replaced with fresh medium and incubated with antimicrobial peptide solutions at various concentrations for 48 h. Cell viability was monitored by adding CCK-8 solution and measuring OD450 after 4 h. Zero-well and control-well were set during this experimental process. All experiments were performed with three independent replicates. The cell survival rate was calculated by the following formula, and the CC50 value of each AMPs was calculated by online tools: https://www.aatbio.com/tools/ic50-calculator. (2) Cell survival rate (%)=OD(AMP)− OD(zero)/OD(control)− OD(zero)×100%
# [4] = system: MRSA; experiment: MBC determination, MBC/MIC ratio; assay type: cell-based, methicillin-resistant Staphylococcus aureus; settings: MBC/MIC ≤4 is considered bactericidal
# Protocol: The MBC was determined using the microdilution broth method described above for MIC determination. After identifying the clear wells (no growth), 10 µL of the liquid from these wells was transferred and spread on a nutrient agar plate. The plate was incubated at 37°C for 18–24 h. […] The lowest concentration with no visible growth was considered the MBC.
# [5] = system: CRAB; experiment: ROS accumulation assay (DCFH-DA); assay type: cell-based, carbapenem-resistant Acinetobacter baumannii; settings: 10 µM DCFH-DA, 2 h incubation
# Protocol: Bacteria in the logarithmic growth phase were prepared to OD600 = 0.5. Ten microliters of DCFH-DA was added to 190 µL of bacterial solution to a final concentration of 10 µM and incubated at 37°C for 30 min. After washing with PBS three times, 190 µL of probe-labeled bacterial cells were added to a 96-well plate, and 10 µL of the sample to be tested was added. After incubation for another 2 h, the fluorescence intensity was immediately measured using a microplate reader with an excitation wavelength of 488 nm and an emission wavelength of 525 nm. The antioxidant NAC (6 mM) was used as a control to neutralize the production of ROS.
sequence,measurement,setting,value
WLKRILKWIGNKLKW [PL-15],MIC,[1],lower than 11 µg mL^−1
same,antimicrobial spectrum,[2],broad-spectrum antimicrobial properties
same,log2CC50 (50% cell viability),[3],≥ 3
same,bactericidal classification by MBC/MIC ratio,[4],bactericidal effects
same,ROS levels (DCF fluorescence),[5],concentration-dependent surge in ROS levels
